What was measured:
Assay type in all cases: cell-based
[1] = tested on: IL-1β gene; assay: qRT-PCR of IL-1β gene expression in blue light-irradiated human retinal pigment epithelial cells; conditions: ARPE-19 cells, 0.0125 mg/ml, incubated 24 h, then blue light 15 min; control group = 100%, comparative group (blue light only) 109.21%
Source text: (§1) In the present embodiment, an RNA extraction kit, a reverse transcriptase, and a KAPA SYBR® FAST qPCR reagent kit were used in conjunction with a quantitative PCR instrument to determine the changes in expression level of the genes associated with eye protection and anti-inflammation in human retinal pigment epithelial cells treated with the peptide having the amino acid sequence of SEQ ID NO.: 1. Further, the efficacy of the bioactive compound obtained from the cowhide peptides of the present disclosure in resisting blue light and preventing inflammatory reactions was confirmed.
(§2) 1. Cell strain: Human retinal pigment epithelial cell ARPE-19 (purchased from ATCC, product number CRL-2302). […]
(§3) The cell membranes of each group of human retinal pigment epithelial cells (i.e., the control group, the comparative group, and the experimental group) resulted from the cell treatment stage were broken with cell lysates. […] Then the cDNA of each group was subjected to a quantitative real-time reverse transcription polymerase chain reaction (qRT-PCR) using the ABI StepOnePlus™ Real-time PCR system (Thermo Fisher Scientific), KAPA SYBR FAST (Sigma, USA, product number 38220000000) and the primers listed in Table 3 (SEQ 1D NO.: 2 to SEQ ID NO.: 9) to assess the expression of VEGFA gene. […] Gene quantification was performed using a 2^−ΔCt method. […]

[2] = tested on: IL-8 gene; assay: qRT-PCR of IL-8 gene expression in blue light-irradiated human retinal pigment epithelial cells; conditions: ARPE-19 cells, 0.0125 mg/ml, incubated 24 h, then blue light 15 min; control group = 100%, comparative group (blue light only) 121.77%
Source text: as §1, §2, §3

[3] = tested on: VEGFA gene; assay: qRT-PCR of VEGFA gene expression in blue light-irradiated human retinal pigment epithelial cells; conditions: ARPE-19 cells, 0.0125 mg/ml, incubated 24 h, then blue light 15 min; control group = 100%, comparative group (blue light only) 109.47%
Source text: as §1, §2, §3

CC(C)C[C@H](NC(=O)[C@H](CO)NC(=O)[C@@H](NC(=O)[C@@H]1CCCN1C(=O)[C@H](CC(C)C)NC(=O)CNC(=O)[C@H](CO)NC(=O)[C@@H]1CCCN1C(=O)[C@H](CC(C)C)NC(=O)[C@H](CCCCN)NC(=O)C(N)C(C)O)C(C)C)C(=O)O (stereo partly drawn) [cowhide peptide, TKLPSGLPVSL]
expression of IL-1β gene relative to the control group [1]: 66.36% | expression of IL-8 gene relative to the control group [2]: 88.29% | expression of VEGFA gene relative to the control group [3]: 84.07%

From patent publication US11389501B1, “Method for treating eye inflammation using anti-inflammatory composition having bioactive compound” (TCI CO., LTD., priority 2021, dated 2022)
